We go through two compounds from patent publication US20010007657A1, “Compositions and methods for manipulating glial progenitor cells and treating neurological deficits” (priority 1997, published 2001).

What all share (format): in vivo, rat
One assay has as its system TGFα mRNA. Briefly: In situ hybridization of TGFα mRNA after nigral 6-OHDA lesion and/or striatal TGFα infusion. Conditions: unilateral nigral 6-OHDA lesion. An excerpt:
(§1) Adult male Sprague-Dawley rats weighing 250-300 grams were obtained from Simonsen (Gilroy, Calif.) and assigned to one of five treatment groups: (1) striatal TGFα infusion, nigral 6-OHDA lesion (hereafter, “lesion”); (2) TGFα infusion, no lesion; (3) artificial cerebrospinal (aCSF) infusion, lesion; (4) aCSF infusion, no lesion; (5) no infusion, no lesion. Four to eight animals were used per experimental group. The animals were monitored after each surgical procedure until fully recovered and maintained at all other times in a temperature and humidity controlled vivarium.
(§2) Rats were anesthetized with 8 mg xylazine and 100 mg ketamine per kilogram body weight. […] The success and extent of 6-OHDA lesions were monitored by tyrosine hydroxylase (TH) mRNA in situ hybridization in the midbrain. TH is the rate-limiting enzyme in the dopamine synthetic pathway and is a common marker for dopamine-producing neurons. One animal with an incomplete lesion (retaining significant numbers of nigral TH-IR cells) was excluded from the study and is not included in the total number of animals.
(§3) Osmotic minipumps (model 2002, Alzet, Inc.) were implanted four to five weeks post-lesion. […] The minipump itself was placed subcutaneously in the interscapular region.
(§4) At the end of the infusion period, animals were sacrificed by decapitation. Their brains were quickly removed, frozen in isopentane at −20° C., and stored at −70° C. Coronal cryostat sections were cut at 20 μm and thaw-adhered to Vectabond™ (Vector Labs, Inc.) coated slides in ordered anterior-to-posterior rows. The sections were postfixed with 4% paraformaldehyde in 0.1 M phosphate buffer (pH 7.4) for one hour, rinsed in phosphate buffer and air dried. Sections were stored with desiccant at −20° C. until processed.
TGFα mRNA probes were generated from a 550 nucleotide XbaI/BamHI cDNA fragment from the 5′ end of rat TGFα subcloned into pGEM 7Zf (Promega, Inc.). Antisense and sense probes were transcribed with SP6 and T7 polymerases, respectively. […]

The subject of a further assay is EGF receptor mRNA. Briefly: In situ hybridization of EGF receptor mRNA after nigral 6-OHDA lesion and/or striatal TGFα infusion.
Description: as §1, §2, §3, §4
TGFα mRNA probes were generated from a 550 nucleotide XbaI/BamHI cDNA fragment from the 5′ end of rat TGFα subcloned into pGEM 7Zf (Promega, Inc.). Antisense and sense probes were transcribed with SP6 and T7 polymerases, respectively. Rat EGF receptor mRNA probes were produced from a 718 base pair BamHI/SphI insert from the 5′ end of the gene in pGEM 7Zf. Probes for rat TH were created using the 1.2 kb BamHI/EcoRI fragment subcloned into pGEM 7Zf. Antisense subclones for EGF receptor and TH were transcribed with T7 polymerase. Sense subclones for EGF receptor and TH were transcribed with SP6 polymerase. All probes were radiolabeled by transcription in the presence of [^35S]UTP (NEN Research Products, Inc.).
In situ nucleic acid hybridization was performed according to the method described by Simmons et al. 1989, supra). Parallel sections from experimental and control animals were hybridized overnight at 65° C. with sense or antisense probes at a concentration of 10^7 cpm/ml.

Assay [1] deals with neural precursor cells of the subependymal zone. As to the kind of experiment: Periventricular cellular expansion and striatal ridge formation (thionin, silver staining, immunohistochemistry). Conditions: midstriatal EGF infusion 0.5 μg/day, lesioned animals. How it is done: Adult male Sprague-Dawley rats weighing 250-300 grams were used throughout the study. Twenty-four animals received standard midstriatal infusions of rat TGFα (0.5 μg/day; Sigma Chemical Co.). Another 26 rats received either artificial cerebrospinal fluid (“aCSF”) or no infusion. A subset of animals in the standard TGFα infusion group and the control group received stereotaxic 6-OHDA injections into the substantia nigra 48 hours after the infusions were begun. Animals used in this portion of the study were classified into six groups according to their infusion-lesion combination, as follows: TGFα infusion, lesion (n=13); TGFα infusion, no lesion (n=11); aCSF infusion, lesion (n=12); aCSF infusion, no lesion (n=9); no infusion, lesion (n=1); no infusion, no lesion (n=4).
Additional animals received TGFα infusions into other regions of striatum, the lateral ventricle, cerebral cortex, or the septum. Four more animals (two per group) received midstriatal TGFα infusions at one-half or one-tenth the standard dose. Also, two animals received midstriatal infusions of epidermal growth factor (EGF) instead of TGFα. The EGF administered in these rats was at the standard 0.5 μg/day dose. All of the animals in these extra groups were lesioned. Rats in all of the experiments were typically perfused one to 16 days postlesion (3-18 days of infusion). […] Brain sections were prepared and stained using various immunocytochemical and histochemical techniques.
Rats were anesthetized with 8 mg xylazine and 100 mg ketamine/kg. Infusions of TGFα were provided up to 18 days by Alzet osmotic minipump (2002). The minipumps were filled to about 200 μl with either aCSF for control animals or 20 μg TGFα in 400 μl of aCSF (50 μg/ml) for experimental animals. Under sterile conditions, the infusion cannula was positioned to stereotaxic coordinates (+1.2 A/P; +2.7 M/L; −6.0 D/V) based on Bregma (Paxinos and Watson, The Rat Brain in Stereotaxic Coordinates, Academic Press, San Diego, 1986) and cemented to the top of the skull with dental cement. The infusate was delivered via cannula at approximately 0.5 μl/hour. Some additional control animals received infusions either into the lateral ventricle, the overlying cortex, or other areas.
Forty-eight hours after the minipump implant, rats were anesthetized as above. A chilled 4.8 mg/ml solution of 6-OHDA HCl was prepared immediately prior to injection. […] A 6-8 μl volume was injected at a rate of 1 μl/minute.
Animals were perfused with 500 ml of 4% paraformaldehyde in 0.1 M phosphate buffered saline (PBS; pH 7.4) one to 16 days postlesion and their brains placed into 20% sucrose. The next day, the brains were frozen in isopentane at −20° C. Forty-micron coronal sections were then cut on a freezing microtome into 2% paraformaldehyde in 0.1 M PBS. Continuous sections were taken through the striatum and substantia nigra-VTA. Representative sections were taken through the rest of the brain.
Microtomed brain sections for Nissl staining were mounted onto gelatin-coated slides and allowed to dry overnight. They were then dehydrated and rehydrated through ethanol baths, and placed in Thionin solution for approximately four minutes. The sections were dehydrated through the series of ethanol baths, cleared in successive Histoclear™ washes, and coverslipped. Section were viewed under light microscopy and photographed with Technical Pan Film™ (Kodak, Inc.) at ISO 100 (HC-110 processing for six minutes).
Degenerating fibers and cells of the ridge were labeled using a modification to the Nauta staining method, similar to Procedure I of Fink-Heimer (Giolli and Karamanlidis, In: Neuroanatomical Research Techniques, R. T. Robertson, Ed., pp. 211-240, Academic Press, New York, 1978).

As to `Cl.NCCc1cc(O)c(O)cc1O` [6-OHDA, 6-hydroxydopamine HCl, reference compound], in the assay with TGFα mRNA, the “contralateral TGFα mRNA hybridization” value is listed as “no effect”. In addition, in the assay on TGFα mRNA (several weeks post-lesion), the “reduction of TGFα mRNA hybridization in the ipsilateral striatum” value was 25%. In addition, in the assay with EGF receptor mRNA (6-OHDA lesion, midbrain), the “EGF receptor hybridization in the ipsilateral SN-VTA” value is listed as “abolished”. Besides, the “striatal and subependymal EGF receptor hybridization” value with EGF receptor mRNA (6-OHDA lesioned animals compared to normal animals) is “unchanged”.
As to “EGF: epidermal growth factor, infused midstriatally instead of TGFα at 0.5 μg/day (NSDSECPLSHDGYCLHDGVCMYIEALDKYACNCVVGYIGERCQYRDLKWWELR; Epidermal growth factor; UniProt P01133 971-1023, looked up)”, in assay [1], the “cellular expansion along the ventricle” value is recorded as “induced the cellular expansion along the ventricle” and the “formation of the striatal ridge” value was “did not induce formation of the striatal ridge”.
